Measured values taken from US6387395B1, “N-[1, (1-1) -dialkyloxy] - and N- [1, (1-1) -dialkenyloxy]- alk-1-yl-N,N,N-tetrasubstituted ammonium lipids and uses therefor” (priority 1985, dated 2002).
Values belong to the compound of their own block, whether it stands above or below them.

Experiments:
Vero cells = test: Protein synthesis ([3H]leucine) in cells treated with DOTMA liposomes / 2-5A analog; assay type: cell-based; settings: 6 hours incubation, alone (no DOTMA); 2-5A analog at 10^−6 M
Excerpt: Oligoadenylates of the general structure ppp(A2′p)nA, n≧2, are referred to as “2-5A”. 2-5A molecules are well known, to those skilled in the art, to bind to an intracellular endonuclease resulting in activation of the endonuclease with subsequent cleavage of ribosomal and messenger RNA, resulting in inhibition of protein synthesis. […] A calcium phosphate coprecipitation technique can be employed to artificially introduce 2-5A into cells, which can be monitored by inhibition of protein synthesis. […] The solutions were then removed by aspiration, the cells were labelled for 90 minutes with [^3H] leucine (1 μCi/0.5 ml/well), and the trichloroacetic acid (TCA)-precipitable radioactivity was determined after incubating 30 minutes with cold 10% TCA, washing, harvesting the cells with 0.1 M NaOH, neutralizing with HCl, and quantitating the radioactivity by liquid scintillation counting. […] However, the calcium phosphate treatment was very toxic to the cells, as determined from their morphology as well as approximately up to 40% reduction in protein synthesis of the cells receiving only the calcium phosphate treatment but no 2-5A.
Cells were incubated and protein synthesis was determined as described above except that the 60 mM CaCl2 was not included. […] In another test, cells were incubated with samples for 2, 6, or 18 hours and protein synthesis was determined as described above.

[1] = Solubility of drug in phosphate buffered saline; assay type: physicochemical
Protocol: For example, 1-[4-(4-chlorophenyl)-2-(2,6-dichlorophenylthio)-n-butyl] imidazole nitrate without the presence of any of the compounds of this invention is insoluble in aqueous buffer (phosphate buffered saline, pH 7.4).
A 0.3% soluble preparation of the above drug was prepared using the following method:
18 mg of 1-[4-(4-chlorophenyl)-2-(2,6-dichlorophenylthio)-n-butyl] imidazole nitrate and 482 mg of N-(2,3-di-(9-(Z)-octadecenyloxy)-prop-1-yl-N,N,N-trimethylammonium chloride were dissolved in methylene dichloride. The methylene dichloride was evaporated under a stream of nitrogen and the dried film placed under vacuum overnight. The dried film was suspended in 6 ml phosphate buffered saline, pH 7.4, and sonicated to clarity.

JZ.1 cells = test: Transient transfection with pSV2CAT, CAT activity; assay type: cell-based, rat
Protocol: (§1) (a) Formation of the lipid-DNA complexBoth DNA and lipid are diluted to 1.5 ml each with HBS (150 mM NaCl, 20 mM Hepes pH 7.4) and then mixed. The DNA lipid complexes form immediately. A typical transfection would use 1 to 10 μg DNA and 100 μg of total lipid (DOTMA:PE, 1:1).
(§2) (b) Treatment of cells—Just confluent 100 mm tissue culture plates of cells are washed 2× with 5 ml of HBS and 3 ml of the DNA-lipid solution is added. The cells are incubated for 3-5 hours at 37° and then 10 ml of DMEM+10% fcs is added. After incubation for 16 hours at 37° the medium is replaced with 10 ml fresh medium and cells are harvested by scraping 2-3 days later. Cell extracts were prepared and CAT assays performed as previously described. For stable transfections 50% confluent cells were treated as above except that 2 days after transfection cells were passaged and grown in selective medium for either neomycin resistance (0.4 mg/ml G418) or E. coli XGPRT expression.
(§3) Cells were transfected with calcium phosphate precipitated DNA as described with the addition of a glycerol shock. Similarly cells were transfected with the DEAE-dextran method as described.

CV-1 cells = test: Transient transfection with pSV2CAT, CAT activity; assay type: cell-based, monkey; settings: CV-1 and COS 7 cells
Protocol: as §1, §2, §3
Cells transfected with the plasmid pSV2CAT express CAT enzyme activity that can be measured in cell extracts 2 days after transfection. […]

mouse L-cells [2] = test: DNA transfection of mouse L-cells; assay type: cell-based
Protocol: as §1
as §2, with “The cells are incubated for 3-5 hours at 37° and then 10 ml of DMEM+10% fcs is added.” left out

[3] = DNA-lipid complex formation on sucrose density gradient; assay type: physicochemical; settings: lipid mixed with DNA at a ratio of 5:1 (wt:wt), gentle mixing
Excerpt: DNA interacts spontaneously with solutions of DOTMA to form lipid-DNA complexes. This complex formation is due presumably to ionic interactions between the positively charged group on the DOTMA molecule and the negatively charged phosphate groups on the DNA. Complex formation was examined using a sucrose density gradient (not shown). In the absence of lipid, DNA migrated to the bottom of the gradient while lipid, in the absence of DNA, floated at the top. When lipid was mixed with DNA at a ratio of 5:1 (wt:wt) all the DNA migrated with the lipid. The association of 100% of the DNA with DOTMA after gentle mixing contrasts with conventional liposome encapsulation procedures which usually entrap less than 10% of the DNA, require an additional purification step to remove unencapsulated DNA or involve potentially destructive conditions such as vigorous agitation or sonication.

mouse L-cells [4] = test: Cytotoxicity of dsRNA introduced into cells (trypan blue viability); assay type: cell-based
Excerpt: Interferon treatment of various cells including both mouse and human cells results in induction of an enzyme, 2-5A synthetase, which when activated by double stranded RNA produces 2-5A. 2-5A is a polymer of ATP that contains unique 2′-5′ linkages rather than the standard 3′-5′ linkages. 2-5A is effectively a communication molecule which activates a latent 2′-5′ endonuclease resulting in degradation of cellular mRNA. […] In the presence of double stranded RNA, 2-5A is produced and can be produced in sufficient concentrations to degrade the majority of the cellular RNA, including ribosomal RNA, resulting in cell death. In this respect, this system can be used as cytotoxic assay to analyze the capacity of a compound to introduce double stranded RNA into the cytoplasm of a cell. The double stranded RNA commonly used is poly IC, a commercially available compound which is used experimentally and classically to induce interferon by methods well known to those familiar in the art. Poly IC will not penetrate cells and cause cytotoxic effects alone, but requires a vehicle to help carry it across the cell membrane. The most common agent used for this purpose is DEAE dextran in experimental cell culture systems and a complex of carboxymethyl cellulose and polylysine in clinical use. […]

Vero or L929 cells = test: Inhibition of protein synthesis ([3H]leucine) by 2-5A, calcium phosphate coprecipitation; assay type: cell-based
Excerpt: Oligoadenylates of the general structure ppp(A2′p)nA, n≧2, are referred to as “2-5A”. 2-5A molecules are well known, to those skilled in the art, to bind to an intracellular endonuclease resulting in activation of the endonuclease with subsequent cleavage of ribosomal and messenger RNA, resulting in inhibition of protein synthesis. […] A calcium phosphate coprecipitation technique can be employed to artificially introduce 2-5A into cells, which can be monitored by inhibition of protein synthesis. Thus 10^−5 to 10^−9 M 2-5A was added to a solution of 120 mM CaCl2, which was then added dropwise into bubbled Hepes buffered saline, pH 7.05 (8.0 g NaCl, 0.37 g KCl, 0.125 g Na2HPO4″2H2O, 1.0 g glucose, and 5.0 g Hepes per liter). A final sample volume of 0.5 ml was added to quadruplicate wells of Costar 24 well plates containing confluent Vero or L929 cells. After 45 minutes at room temperature, an additional 0.5 ml of media was added to each well and incubated an additional 90 minutes at 37° C. The solutions were then removed by aspiration, the cells were labelled for 90 minutes with [^3H] leucine (1 μCi/0.5 ml/well), and the trichloroacetic acid (TCA)-precipitable radioactivity was determined after incubating 30 minutes with cold 10% TCA, washing, harvesting the cells with 0.1 M NaOH, neutralizing with HCl, and quantitating the radioactivity by liquid scintillation counting. […] 50%-maximal inhibition occurred at approximately 10^−9 M 2-5A. However, the calcium phosphate treatment was very toxic to the cells, as determined from their morphology as well as approximately up to 40% reduction in protein synthesis of the cells receiving only the calcium phosphate treatment but no 2-5A.

L-TK cells = test: Stable transfection frequency (drug resistant colonies); assay type: cell-based, murine; settings: pSV2neo 1 μg with 10 μg carrier DNA
Protocol: (§4) (b) Treatment of cells—Just confluent 100 mm tissue culture plates of cells are washed 2× with 5 ml of HBS and 3 ml of the DNA-lipid solution is added. The cells are incubated for 3-5 hours at 37° and then 10 ml of DMEM+10% fcs is added. After incubation for 16 hours at 37° the medium is replaced with 10 ml fresh medium and cells are harvested by scraping 2-3 days later. Cell extracts were prepared and CAT assays performed as previously described.
as §3

TA1 cells = test: as above; assay type: cell-based, murine
Protocol: as §4, §3

Ψ2 cells = test: as above; assay type: cell-based, murine
Protocol: as §4, §3

MSN610.2 cells = test: as above; assay type: cell-based, rat; settings: MSN610.2, pSV2neo 1 μg with 10 μg carrier DNA
Protocol: as §4, §3

Compound: 5′-triphosphophoryladenylyl-(2′→5′)adenylyl-(2′→5′)adenylyl-(2′→6′)(3′-aza-N-hexyl-1′,2′,3′,4′-tetradeo xyhexopyranos-1′-yl)adenine [2-5A analog]
% of protein synthesis of untreated cells (Vero cells): 82±14%

Compound: Clc1ccc(CCC(Cn2ccnc2)Sc2c(Cl)cccc2Cl)cc1.O=[N+]([O-])O (stereo not shown) [1-[4-(4-chlorophenyl)-2-(2,6-dichlorophenylthio)-n-butyl] imidazole nitrate]
soluble preparation of drug ([1]; 18 mg drug with 482 mg DOTMA in 6 ml phosphate buffered saline pH 7.4, sonicated to clarity): 0.3% | solubility in aqueous buffer ([1]; phosphate buffered saline, pH 7.4, without compounds of the invention): insoluble

DNA associated with lipid [3]: 100%
Compound: CCCCCCCC/C=C\CCCCCCCCOCC(C[N+](C)(C)C)OCCCCCCCC/C=C\CCCCCCCC.[Cl-] (stereo not shown) [DOTMA, N-(2,3-di(9-(Z)-octadecenyloxy))-prop-1-yl-N,N,N-trimethylammonium chloride]
fold enhancement over the DEAE-dextran procedure (JZ.1 cells): ≥ 80 fold | fold increase in CAT activity relative to transient transfection with DEAE-dextran (CV-1 cells): 6-11 fold | CAT activity (% of control) (mouse L-cells [2]; serum present from the outset): less than 5%

Compound: CCCCCCCCCCCCCCCCCC[N+](C)(C)CCCCCCCCCCCCCCCCCC.[Br-] [dioctadecyl dimethyl ammonium bromide]
efficacy as mediators of DNA transfection (mouse L-cells [2]): little efficacy

Compound: CCCCCCCCCCCCCCCCCCN [stearylamine]
efficacy as mediators of DNA transfection (mouse L-cells [2]): little efficacy

Compound: Poly IC
Cell Survival (mouse L-cells [4]; 1 million cells, 24 hrs treatment, trypan blue): 100% | frequency of surviving cells (mouse L-cells [4]; poly IC introduced by the DOTMA lipid): 1×10^−6

Compound: calcium phosphate
reduction in protein synthesis (Vero or L929 cells; calcium phosphate treatment only, no 2-5A): up to 40% | % of protein synthesis of untreated cells (Vero cells): 64±3% | Frequency × 10^5 (L-TK cells): 3 | Frequency × 10^5 (TA1 cells; TA1, pMSGC5a 7 μg): 1.3 | Frequency × 10^5 (TA1 cells; TA1, pSV2neo 1 μg with 10 μg carrier DNA): 2 | Frequency × 10^5 (TA1 cells; TA1, pZIPSVX 7 μg): 0.7 | Frequency × 10^5 (Ψ2 cells; Ψ2, pZIPC5a 7 μg): 1.8 | Frequency × 10^5 (Ψ2 cells; Ψ2, pZIPSVX 7 μg): 0.6 | Frequency × 10^5 (MSN610.2 cells): 1.3

Compound: ppp(A2′p)2A
IC50 (Vero or L929 cells; after the calcium-phosphate precipitation technique, read-out: 50%-maximal inhibition of protein synthesis): ~1 nM | inhibition of protein synthesis (Vero or L929 cells; all concentrations, without calcium phosphate coprecipitation): no inhibition of protein synthesis
